According to patent US11179347B2, “Hydrocarbon oil for a therapeutic use” (TOTAL MARKETING SERVICES, priority 2017, dated 2021):
Marks after values point to notes of the source that are not given here.

Key:
HaCaT cells [1] = experiment: Production of reactive oxygen species in HaCat cells incubated with oil then preservative (POE or MIT); format: cell-based
Method: Preservatives, used as an additive in pharmaceutical compositions, were evaluated. The preservatives evaluated are phenoxyethanol (POE) and methylisothiazolinone (MIT).
For this test, the HaCat cells are incubated with the oils A or B (for example for 15 minutes for the test with POE) then with the preservative POE or MIT (for example for 30 minutes with a solution of phenoxyethanol at 250 μg/mL).

HaCaT cells [2] = experiment: Condensation of the chromatin, HOECHST 33342 test, HaCat cells with or without benzalkonium chloride; format: cell-based; details: one hour with oil or CM, then 20 minutes benzalkonium chloride (BAC) 8 ppm by weight
Method: The following standards and methods were used to measure the properties hereinabove: • flash point: EN ISO 2719 • density at 15° C.: EN ISO 1185 • viscosity at 40° C.: EN ISO 3104 • aniline point: EN ISO 2977 • boiling point: ASTM D86 • biodegradability: OECD method 306 • refractive index at 20° C.: ASTM D 1218 • vapour pressure: calculated according to methods well known to those skilled in the art Tests on the Cellular Effects Preparation of the Tests: • Preparation of the microplates: 24 hours before the incubation with the oils A and B, the HaCaT cells are inoculated with a cell density of 100,000 cells/ml in 96-well microplates (Corning). The microplates are then placed in the incubator at 37° C. In a microplate, each condition was tested at least three times. Each experiment was carried out at least three times independently in order to validate the reproducibility of the results and to carry out statistical analyses. • Incubation of cells with the oils A or B: two durations of incubation were selected for the products to be tested pure: an incubation for fifteen minutes and an incubation for one hour. […]
The measurement of the condensation of the chromatin expressed as a percentage relative to the culture medium (CM) is indicated in table 3 hereinbelow.

## Cn1sccc1=O [MIT, methylisothiazolinone]
HaCaT cells [1]; with preservative methylisothiazolinone (MIT), after incubation with oil or CM
  Production of reactive oxygen species (% relative to the CM): 135 % relative to the CM

## benzalkonium chloride [CM + BAC]
HaCaT cells [2]
  Measurement of the condensation of the chromatin (% relative to the CM): 138*** % relative to the CM

## phenoxyethanol [CM + POE]
HaCaT cells [1]; with preservative phenoxyethanol (POE) 250 μg/mL 30 minutes, after 15 minutes with oil or CM
  Production of reactive oxygen species (% relative to the CM): 132 % relative to the CM
